Results on three compounds are retold here after US9079854B2 (priority 2007, dated 2015).

For assay [1], the system named is tactile allodynia in a spinal nerve ligation neuropathic pain model. The assay is described as follows: Lumbar 5/6 spinal nerve ligation neuropathic pain model, mechanical paw withdrawal threshold (von Frey). It is filed as in vivo, rat. Particulars: pretreatment with 5 mg/kg i.p.; rats. From the text:
Neuropathic pain was induced following the methods of Kim and Chung. Kim S H, Chung J M. An experimental model for peripheral neuropathy produced by segmental spinal nerve ligation in the rat. Pain 1992; 50:355-63. Rats were anesthetized and placed prone under a microsurgical apparatus. A midline incision was made on the back, and the right paraspinal muscles were separated from the spinous processes at the L4-S2 levels. The L6 transverse process was carefully removed, and the L4/5 spinal nerves were identified. The L5 nerve was tightly ligated with a 6-0 silk suture. The right L6 spinal nerve was then located just caudal and medial to the sacroiliac junction and tightly ligated with a silk suture.
Two weeks later after spinal nerve ligation, Intrathecal catheters (PE-10 tubing) was inserted into the rats while they were anesthetized with isoflurane, as described by Yaksh and Rudy. Yaksh T L, Rudy T A. Chronic catheterization of the spinal subarachnoid space. Physiology & Behavior 1976; 17:1031-6. A midline incision was made on the back of the neck. The muscle was freed at the attachment to the skull exposing the cisternal membrane. The membrane was opened with a stab blade and an 8.5 cm polyethylene (PE-10) catheter was then inserted through the cisternal opening, and passed carefully and caudally into the intrathecal space at the L1-L3 spinal segments. The end of the catheter was tunneled through the subcutaneous space over the frontal bones, flushed with 10 μl saline, and then plugged with a short length of wire Animal testing was performed 5-7 days after intrathecal catheter placement.
To assess mechanical allodynia, the mechanical paw withdrawal threshold was measured with a series of von Frey hairs (range 0.4-15 g). Rats were placed in elevated Perspex enclosures (28 cm×15 cm×18 cm) with wire mesh bases and given 15-20 min to acclimatize to the testing environment. Rats will be allowed to acclimatize for 30 min in a clear plastic cage with a wire mesh bottom. The calibrated von Frey filament fibers were applied to the hindpaw briefly for 6 seconds to determine the paw withdrawal threshold before and after drug injection (intraperitoneally or intrathecally). A series of von Frey filaments with exponentially incremental stiffness (0.4, 0.7, 1.2, 2.0, 3.6, 5.5, 8.5 and 15 g) were used to measure the 50% threshold for hindpaw withdrawal in awake, unrestrained rats. Chaplan S R, Bach F W, Pogrel J W, Chung J M, Yaksh T L. Quantitative assessment of tactile allodynia in the rat paw. Journal of Neuroscience Methods 1994; 53:55-63. Brisk paw withdrawal from the pressure of a filament gently bent against the plantar paw was defined as a positive response, and absence of withdrawal within 6 s as a negative response. Filaments were touched to the hindpaw in sequential ascending or descending order until the threshold of response is crossed (allowing about 10 s between each increment of the von Frey filaments). Each time the threshold is crossed, the direction of stimulus presentation was reversed and the procedure will be resumed. Four responses were collected after the first threshold detection, and the 50% withdrawal thresholds were interpolated. In cases where response thresholds fell outside the range of detection, 15.00 and 0.25 g were, respectively, assigned for continuous negative or positive responses to the limit of stimuli.
All surgical procedures were performed under deep isoflurane anesthesia in 100% O2. The spinal nerve ligation (SNL) was performed as described previously. Kim, S. H., et al., An Experimental Model for Peripheral Neuropathy Produced by Segmental Spinal Nerve Ligation in the Rat, Pain, 1992, 50:355-63. Briefly, a midline incision above the lumbar spine exposed the left L6 transverse process. The process was then removed, the left L5 and L6 spinal nerves were isolated, and both nerves were tightly ligated with 6-0 silk. […]

The target in assay [2] is T1, human CB1 (hCB1) receptor (Homo sapiens, UniProt P21554).
T1 construct: expressed in transfected cells; host or cells: CHO (Chinese hamster ovary) cells, membranes
As to the kind of experiment: CB1 binding assay, competitive binding of [3H]CP 55940. Particulars: at 1 μM; specific binding of [3H]-CP55940; CHO membranes. The method, boiled down:
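CHO cell membranes expressing human CB1 (25 μg protein) incubated 120 min at 37 °C with 0.5 nM [3H]CP 55940 in Tris-HCl pH 7.4 buffer with MgCl2, EDTA, 0.3% BSA. Filtration and scintillation counting; compound tested at 1 μM, given as percent inhibition of control specific binding.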

A further assay deals with T2, hCB2 receptor (Homo sapiens, UniProt P34972).
T2 construct: purchased ES-111-MG; host or cells: CHO membrane extracts
The assay is described as follows: CB2 functional assay, [35S]GTP-γ-S binding. It is filed as biochemical. As to the method: (§1) A dose response curve was generated at eight concentrations in duplicate on CB1 and CB2 in light of reference agonists.
(§2) Membranes (CB1, ES-110-MG or CB2, ES-111-MG) are mixed with GDP (volume:volume) and incubated for at least […] on ice. In parallel, […] are mixed with the beads (volume:volume) just before starting the reaction. The following reagents are successively added in the wells of an Optiplate: 50 μl of ligand, 20 μl of the membranes:GDP mix, 10 μl of assay buffer for agonist testing and 20 μl of the […]: beads mix. The plates are covered with a topseal, shaken on an orbital shaker for 2 min, and then incubated between 30 to 60 min at room temperature. Then the plates are centrifuged for 10 min at 2000 rpm, incubated at room temperature between 1 to 4 hours and counted for 1 min with a PerkinElmer TopCount reader.
(§3) Functional activity for acyl hydrazone was evaluated using [^35S]GTP-γ-S assay in CHO membrane extracts expressing recombinant hCB1 receptor or hCB2 receptor. The assay relies on the binding of [^35S]GTP-γ-S, a radiolabeled nonhydrolyzable GTP analogue, to the G protein upon binding of an agonist of the G-protein-coupled receptor. In this system, agonists stimulate [^35S]GTP-γ-S binding whereas neutral antagonist have no effect and inverse agonists decrease [^35S]GTP-γ-S basal binding.
(§4) CB1 and CB2 assay data are presented as the mean of two determinations. […] For replicate determinations, the maximum variability tolerated in the test was of ±20% around the average of the replicates.
(In general: GTPγS is a poorly hydrolysed GTP analogue; its binding reports G protein activation.)

For assay [3], the target named is T3, human CB2 (hCB2) receptor (Homo sapiens, UniProt P34972).
T3 construct: expressed in transfected cells; host or cells: CHO (Chinese hamster ovary) cells, membranes
As to the kind of experiment: CB2 binding assay, competitive binding of [3H]WIN 55212-2. Particulars: read-out: % inhibition hCB2 receptor, at 1 μM; specific binding of [3H]-WIN55212-2; CHO membranes. The method, boiled down:
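CHO cell membranes expressing hCB2 (15 μg protein) incubated 120 min at 37° C with 0.8 nM [3H]WIN 55212-2 in 50 mM HEPES/Tris pH 7.4, 5 mM MgCl2, 2.5 mM EGTA, 0.1% BSA; nonspecific binding with 10 μM WIN 55212-2. Filtration and scintillation counting; compounds at 1 μM, reported as % inhibition of control specific binding.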

Assay [4] deals with T4, CB1 (Homo sapiens, UniProt P21554). As to the kind of experiment: CB1 antagonist functional assay. The note with it: data not shown. It is filed as biochemical.
The target in assay [5] is T4, CB1. The assay is described as follows: CB1 functional assay, [35S]GTP-γ-S binding. It is filed as biochemical. Set-up: purchased ES-110-MG; host or cells: CHO membrane extracts. Particulars: read-out: [35S]GTP-γ-S hCB1 Emax (%); Table 9 footnote a: Efficacy determined at 3 μM; relative to CP 55,940. How it is done:
as §1, §2, §3, §4

Structures are written as SMILES. Some results are limits rather than exact numbers.

T4 sequence (P21554 whole entry): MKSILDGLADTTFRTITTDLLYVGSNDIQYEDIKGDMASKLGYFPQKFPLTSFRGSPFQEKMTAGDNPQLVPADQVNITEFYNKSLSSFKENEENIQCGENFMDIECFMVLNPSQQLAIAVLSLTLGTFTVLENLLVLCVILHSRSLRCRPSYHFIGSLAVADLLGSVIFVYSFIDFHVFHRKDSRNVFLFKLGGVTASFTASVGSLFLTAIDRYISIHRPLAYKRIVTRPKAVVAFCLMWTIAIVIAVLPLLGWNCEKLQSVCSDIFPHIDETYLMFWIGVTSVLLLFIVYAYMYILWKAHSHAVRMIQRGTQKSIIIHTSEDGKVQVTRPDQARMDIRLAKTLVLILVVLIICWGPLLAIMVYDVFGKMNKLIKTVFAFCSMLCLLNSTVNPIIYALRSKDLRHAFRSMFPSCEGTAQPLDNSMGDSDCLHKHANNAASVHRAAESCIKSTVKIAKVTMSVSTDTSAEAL
T2 sequence (P34972 whole entry): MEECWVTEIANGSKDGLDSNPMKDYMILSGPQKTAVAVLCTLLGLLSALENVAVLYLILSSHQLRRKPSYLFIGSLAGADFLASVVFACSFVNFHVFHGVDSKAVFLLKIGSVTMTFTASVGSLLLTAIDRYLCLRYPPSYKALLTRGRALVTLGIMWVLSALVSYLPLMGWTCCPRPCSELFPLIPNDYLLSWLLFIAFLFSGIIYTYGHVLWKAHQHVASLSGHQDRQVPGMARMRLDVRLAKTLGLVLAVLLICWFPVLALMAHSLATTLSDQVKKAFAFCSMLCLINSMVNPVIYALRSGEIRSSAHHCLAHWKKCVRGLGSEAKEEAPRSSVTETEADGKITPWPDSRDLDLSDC
T1 sequence (P21554 whole entry): as the sequence (P21554 whole entry) above
T3 sequence (P34972 whole entry): as the sequence (P34972 whole entry) above

`COc1ccc(C(=O)c2c(C)n(CCN3CCOCC3)c3cc(I)ccc23)cc1` [AM630, reference compound]: the “effect of pretreatment on the anti-allodynic effect of Example 6” value in assay [1] is reported as “antagonized the effects of compound of Example 6”.

With `CCCCCCN1C(=O)/C(=N\NC(=O)c2cccc3ccccc23)c2ccccc21` [Example 19, N′-[(3Z)-1-hexyl-2-oxo-1,2-dihydro-3H-indol-3-ylidene]-1-naphthohydrazide], the results for the inhibition at 1 µM in assay [2] and in assay [3] were over 80% and 69.8 ± 4%, respectively. In addition, the EC50 (as a rule, the concentration needed to bring the measured effect to its halfway point) on hCB2 receptor (Table 9, mean of two determinations, read-out: [35S]GTP-γ-S hCB2 EC50 (nM ± SEM)) was 202.2 ± 2 nM. In addition, the Emax – broadly, the maximal effect, on the per cent scale that the assay sets – at hCB2 receptor (Table 9, relative to the efficacy of CP 55,940) came out at 30.5%. For the same compound, at CB1 [4], the “antagonist activity in a CB1 antagonist functional assay” value is listed as “failed to be antagonist”. Also, the Emax at 3 µM on CB1 [5] was found to be 12.9%.

`CCCCCCN1C(=O)/C(=N\NC(=O)C23CC4CC(CC(C4)C2)C3)c2ccccc21` [Example 20, N′-[(3Z)-1-hexyl-2-oxo-1,2-dihydro-3H-indol-3-ylidene]adamantane-1-carbohydrazide]: the inhibition at 1 µM in assay [2] and in assay [3] was over 85% throughout. Further, the Emax at 3 µM at hCB2 receptor (read-out: [35S]GTP-γ-S hCB2 Emax (%), Table 9 footnote a: Efficacy determined at 3 μM, relative to CP 55,940) was determined as 32.1%; on CB1 [5], 34.6%. The “antagonist activity in a CB1 antagonist functional assay” value on CB1 [4] was “failed to be antagonist”.
